Experiments:
[1] = biological target: T1, ATP-binding cassette sub-family C member 2 (Homo sapiens, UniProt Q92887); experiment: TP_TRANSPORTER: transport in MRP2-expressing vesicles; format: functional, subcellular
[2] = biological target: T2, OATP1B3 (Homo sapiens, UniProt Q9NPD5); experiment: TP_TRANSPORTER: transport in OATP1B3-expressing oocytes; format: functional, cell-based, Oocyte
T2 sequence (Q9NPD5 whole entry): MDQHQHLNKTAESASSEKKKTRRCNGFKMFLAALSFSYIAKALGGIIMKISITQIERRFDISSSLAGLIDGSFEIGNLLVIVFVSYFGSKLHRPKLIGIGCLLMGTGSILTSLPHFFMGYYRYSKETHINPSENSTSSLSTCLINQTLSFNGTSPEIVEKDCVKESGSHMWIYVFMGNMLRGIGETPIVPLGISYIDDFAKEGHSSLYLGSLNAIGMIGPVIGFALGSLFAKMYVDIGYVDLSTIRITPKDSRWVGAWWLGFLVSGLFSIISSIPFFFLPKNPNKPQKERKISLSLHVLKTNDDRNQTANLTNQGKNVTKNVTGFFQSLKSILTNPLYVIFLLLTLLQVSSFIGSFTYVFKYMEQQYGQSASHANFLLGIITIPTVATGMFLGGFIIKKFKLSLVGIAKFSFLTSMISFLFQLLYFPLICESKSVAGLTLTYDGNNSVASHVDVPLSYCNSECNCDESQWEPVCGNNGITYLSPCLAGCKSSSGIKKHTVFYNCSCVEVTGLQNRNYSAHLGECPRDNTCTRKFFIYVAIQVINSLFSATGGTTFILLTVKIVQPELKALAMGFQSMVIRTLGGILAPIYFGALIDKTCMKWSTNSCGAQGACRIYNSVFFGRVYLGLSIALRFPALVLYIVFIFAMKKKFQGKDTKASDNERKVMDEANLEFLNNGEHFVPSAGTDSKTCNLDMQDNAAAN

[3] = biological target: T1, ATP-binding cassette sub-family C member 2; experiment: TP_TRANSPORTER: transport in hCMV cells; format: functional, cell membranes, Canalicular membrane vesicle
[4] = biological target: ATP-binding cassette sub-family C member 2 (Rattus norvegicus, UniProt Q63120); experiment: TP_TRANSPORTER: biliary excretion in EHBR rat; format: functional, organism-based, Bile; details: in vivo
Sequence of ATP-binding cassette sub-family C member 2 (Rattus norvegicus, UniProt Q63120) (Q63120 whole entry): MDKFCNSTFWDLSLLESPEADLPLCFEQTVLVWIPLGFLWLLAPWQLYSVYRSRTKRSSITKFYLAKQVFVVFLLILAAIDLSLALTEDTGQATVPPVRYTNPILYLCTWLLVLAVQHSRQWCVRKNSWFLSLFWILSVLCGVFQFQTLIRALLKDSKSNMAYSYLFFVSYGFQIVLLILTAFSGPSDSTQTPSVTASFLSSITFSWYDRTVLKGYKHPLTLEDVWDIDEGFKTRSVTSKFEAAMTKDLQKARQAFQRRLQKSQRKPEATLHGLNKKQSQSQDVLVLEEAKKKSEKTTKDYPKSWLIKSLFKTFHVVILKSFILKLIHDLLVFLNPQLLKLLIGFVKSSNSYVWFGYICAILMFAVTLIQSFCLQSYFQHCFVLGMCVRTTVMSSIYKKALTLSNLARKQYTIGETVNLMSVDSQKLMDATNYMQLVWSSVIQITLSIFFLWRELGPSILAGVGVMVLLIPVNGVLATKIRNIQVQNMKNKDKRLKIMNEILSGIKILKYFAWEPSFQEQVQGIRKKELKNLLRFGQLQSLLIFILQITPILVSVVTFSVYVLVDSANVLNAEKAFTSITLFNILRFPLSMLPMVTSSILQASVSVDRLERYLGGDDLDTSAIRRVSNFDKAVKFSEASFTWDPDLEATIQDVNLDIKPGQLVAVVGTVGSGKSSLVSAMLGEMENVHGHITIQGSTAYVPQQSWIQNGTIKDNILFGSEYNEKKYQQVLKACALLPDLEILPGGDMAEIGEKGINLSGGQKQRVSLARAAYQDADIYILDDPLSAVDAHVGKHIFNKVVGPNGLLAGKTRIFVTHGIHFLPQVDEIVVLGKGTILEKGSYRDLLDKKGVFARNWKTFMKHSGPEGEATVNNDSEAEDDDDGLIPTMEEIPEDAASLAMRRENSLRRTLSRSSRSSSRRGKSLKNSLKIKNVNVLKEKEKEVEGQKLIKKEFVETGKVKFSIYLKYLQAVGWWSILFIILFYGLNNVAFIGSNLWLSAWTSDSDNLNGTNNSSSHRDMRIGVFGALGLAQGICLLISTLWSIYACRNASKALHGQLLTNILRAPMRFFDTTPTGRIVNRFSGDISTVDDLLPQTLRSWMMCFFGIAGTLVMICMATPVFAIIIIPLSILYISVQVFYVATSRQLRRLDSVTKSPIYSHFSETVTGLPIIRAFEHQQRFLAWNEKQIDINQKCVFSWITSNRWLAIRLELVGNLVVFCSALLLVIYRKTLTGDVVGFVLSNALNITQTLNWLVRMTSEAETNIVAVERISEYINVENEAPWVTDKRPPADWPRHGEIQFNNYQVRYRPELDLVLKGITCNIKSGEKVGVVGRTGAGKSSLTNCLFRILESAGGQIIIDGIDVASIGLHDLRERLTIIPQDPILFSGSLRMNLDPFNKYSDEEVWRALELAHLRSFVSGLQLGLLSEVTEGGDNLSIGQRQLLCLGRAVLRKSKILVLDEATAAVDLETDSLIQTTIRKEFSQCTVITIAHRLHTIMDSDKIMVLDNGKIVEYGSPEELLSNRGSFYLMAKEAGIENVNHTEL

[5] = biological target: T3, Hepatic sodium/bile acid cotransporter (Homo sapiens, UniProt Q14973); experiment: TP_TRANSPORTER: transport in NTCP-transfected HEK-293 cells; format: functional, cell-based; details: hek293
T3 sequence (Q14973 whole entry): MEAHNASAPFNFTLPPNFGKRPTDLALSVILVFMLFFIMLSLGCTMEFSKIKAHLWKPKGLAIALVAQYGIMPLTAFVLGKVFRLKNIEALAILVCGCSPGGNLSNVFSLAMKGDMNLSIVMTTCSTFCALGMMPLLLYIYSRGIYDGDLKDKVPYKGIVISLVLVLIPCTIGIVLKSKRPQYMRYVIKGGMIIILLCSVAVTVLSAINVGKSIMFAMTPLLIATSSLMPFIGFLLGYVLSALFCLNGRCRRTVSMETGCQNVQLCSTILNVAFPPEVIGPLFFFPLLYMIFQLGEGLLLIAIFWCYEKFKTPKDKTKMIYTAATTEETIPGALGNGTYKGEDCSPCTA

[6] = substrate: CCCc1nc(C(C)(C)O)c(C(=O)O)n1Cc1ccc(-c2ccccc2-c2nnn[nH]2)cc1; experiment: TP_TRANSPORTER: transport in OATP1B1-expressing oocytes; format: functional, cell-based, Oocyte

T1 sequence (Q92887 whole entry): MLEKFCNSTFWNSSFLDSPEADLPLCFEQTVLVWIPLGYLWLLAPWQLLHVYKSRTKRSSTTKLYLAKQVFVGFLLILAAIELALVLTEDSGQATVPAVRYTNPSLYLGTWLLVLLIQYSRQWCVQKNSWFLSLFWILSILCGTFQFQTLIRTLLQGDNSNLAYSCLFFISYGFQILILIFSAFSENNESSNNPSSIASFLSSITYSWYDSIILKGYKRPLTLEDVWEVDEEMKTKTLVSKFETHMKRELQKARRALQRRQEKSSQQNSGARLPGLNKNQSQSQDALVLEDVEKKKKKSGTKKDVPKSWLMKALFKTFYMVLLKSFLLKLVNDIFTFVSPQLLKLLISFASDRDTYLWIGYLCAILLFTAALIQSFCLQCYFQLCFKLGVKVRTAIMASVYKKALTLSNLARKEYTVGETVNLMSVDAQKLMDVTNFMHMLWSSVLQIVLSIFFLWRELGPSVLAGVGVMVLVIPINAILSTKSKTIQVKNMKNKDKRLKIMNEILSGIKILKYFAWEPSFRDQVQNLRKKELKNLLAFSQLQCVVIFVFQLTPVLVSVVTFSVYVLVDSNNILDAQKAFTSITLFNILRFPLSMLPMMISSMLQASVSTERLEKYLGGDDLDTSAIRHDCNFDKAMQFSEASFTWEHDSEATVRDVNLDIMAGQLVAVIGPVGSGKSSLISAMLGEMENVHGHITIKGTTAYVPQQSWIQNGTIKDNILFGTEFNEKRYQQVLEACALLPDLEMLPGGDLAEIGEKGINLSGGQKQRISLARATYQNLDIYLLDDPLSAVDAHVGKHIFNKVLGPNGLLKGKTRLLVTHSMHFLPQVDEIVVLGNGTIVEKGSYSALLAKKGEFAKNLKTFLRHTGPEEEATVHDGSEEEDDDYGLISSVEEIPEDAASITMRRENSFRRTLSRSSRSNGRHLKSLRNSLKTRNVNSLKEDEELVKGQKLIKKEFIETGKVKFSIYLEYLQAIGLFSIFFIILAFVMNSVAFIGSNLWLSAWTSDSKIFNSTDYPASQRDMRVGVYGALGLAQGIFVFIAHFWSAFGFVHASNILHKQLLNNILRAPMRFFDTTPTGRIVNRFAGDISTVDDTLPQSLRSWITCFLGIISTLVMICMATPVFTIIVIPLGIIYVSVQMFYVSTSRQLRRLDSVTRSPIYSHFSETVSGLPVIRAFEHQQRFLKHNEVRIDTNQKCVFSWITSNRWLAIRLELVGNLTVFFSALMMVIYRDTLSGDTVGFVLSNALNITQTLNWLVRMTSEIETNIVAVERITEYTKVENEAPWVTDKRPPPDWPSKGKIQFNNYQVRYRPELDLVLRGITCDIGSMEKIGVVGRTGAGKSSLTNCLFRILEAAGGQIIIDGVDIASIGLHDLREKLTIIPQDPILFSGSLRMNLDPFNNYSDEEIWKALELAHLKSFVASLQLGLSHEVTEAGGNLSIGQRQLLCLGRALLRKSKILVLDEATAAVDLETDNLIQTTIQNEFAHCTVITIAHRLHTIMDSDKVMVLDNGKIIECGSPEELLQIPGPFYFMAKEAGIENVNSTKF

Activity [1]	Km [2] [µM]	Activity [3]	Activity [4]	Activity [5]	Molecule	Km [6] [µM]
substrate [+]	71.8	substrate [+]	substrate [+]	is not a substrate [-]	CCCc1nc(C(C)(C)O)c(C(=O)O)n1Cc1ccc(-c2ccccc2-c2nnn[nH]2)cc1 [OLMESARTAN]	
					Solute carrier organic anion transporter family member 1B1 (Homo sapiens) (protein) MDQNQHLNKTAEAQPSENKKTRYCNGLKMFLAALSLSFIAKTLGAIIMKSSIIHIERRFEISSSLVGFIDGSFEIGNLLVIVFVSYFGSKLHRPKLIGIGCFIMGIGGVLTALPHFFMGYYRYSKETNINSSENSTSTLSTCLINQILSLNRASPEIVGKGCLKESGSYMWIYVFMGNMLRGIGETPIVPLGLSYIDDFAKEGHSSLYLGILNAIAMIGPIIGFTLGSLFSKMYVDIGYVDLSTIRITPTDSRWVGAWWLNFLVSGLFSIISSIPFFFLPQTPNKPQKERKASLSLHVLETNDEKDQTANLTNQGKNITKNVTGFFQSFKSILTNPLYVMFVLLTLLQVSSYIGAFTYVFKYVEQQYGQPSSKANILLGVITIPIFASGMFLGGYIIKKFKLNTVGIAKFSCFTAVMSLSFYLLYFFILCENKSVAGLTMTYDGNNPVTSHRDVPLSYCNSDCNCDESQWEPVCGNNGITYISPCLAGCKSSSGNKKPIVFYNCSCLEVTGLQNRNYSAHLGECPRDDACTRKFYFFVAIQVLNLFFSALGGTSHVMLIVKIVQPELKSLALGFHSMVIRALGGILAPIYFGALIDTTCIKWSTNNCGTRGSCRTYNSTSFSRVYLGLSSMLRVSSLVLYIILIYAMKKKYQEKDINASENGSVMDEANLESLNKNKHFVPSAGADSETHC	42.6

Source: ChEMBL document CHEMBL2074533, “OATP1B1, OATP1B3, and mrp2 are involved in hepatobiliary transport of olmesartan, a novel angiotensin II blocker” (Drug Metab Dispos, 2006)
